According to patent publication US20260158009A1 (GENZYME CORPORATION, priority 2023, published 2026):
pIC50: −log10 of the molar value.

What was measured:
[1] = target: T1, hRIPK1 (aa 1-375) fusion protein (Homo sapiens, UniProt Q13546); assay: ADP-Glo kinase assay: catalytic activity of RIPK1 (autophosphorylation, conversion of ATP to ADP); type: biochemical
T1 construct: hRIPK1 (aa 1-375) fusion protein
T1 sequence (Q13546 1-375): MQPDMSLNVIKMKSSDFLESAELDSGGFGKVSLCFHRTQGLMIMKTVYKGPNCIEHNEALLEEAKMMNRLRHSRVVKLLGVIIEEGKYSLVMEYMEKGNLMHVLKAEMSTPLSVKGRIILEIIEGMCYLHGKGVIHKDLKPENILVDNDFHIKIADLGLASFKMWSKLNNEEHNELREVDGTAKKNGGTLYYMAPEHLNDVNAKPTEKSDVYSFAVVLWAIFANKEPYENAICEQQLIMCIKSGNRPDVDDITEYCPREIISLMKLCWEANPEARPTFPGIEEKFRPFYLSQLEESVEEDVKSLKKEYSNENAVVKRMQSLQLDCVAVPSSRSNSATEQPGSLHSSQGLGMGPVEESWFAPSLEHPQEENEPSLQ
Protocol: The catalytic activity of RIPK1 was measured by monitoring the conversion of Adenosine triphosphate (ATP) to Adenosine diphosphate (ADP) due to autophosphorylation using an ADP-Glo kinase kit (Promega, catalog no. V9104).
In detail, 2 μl recombinantly produced hRIPK1 (aa 1-375) fusion protein (end concentration 3.6 μg/ml) and 2 μl compound (end concentration 33300-1.69 nM; DMSO end concentration 1%) were incubated for 30 minutes at room temperature and then 2 μl ATP (ADP Glo kit, end concentration 50 μM) were added. After another 240 minutes incubation at room temperature, 5 μl Promega ADP-Glo reagent I was added to quench the reaction and deplete unconsumed ATP. After an incubation period of 30 minutes, 10 μl Promega ADP-Glo detection reagent II was added resulting in conversion of ADP to ATP, which generates a light-reaction between luciferase and luciferin. Luminescence was quantified after 30 minutes with a Pherastar FS (BMG LABTECH, Ortenberg).
The adjustment was obtained by nonlinear regression using the Levenberg Marquardt algorithm.

U937 cells = assay: Cellular assay in U937 cells: activity of RIPK1 inhibitors on TNFα/zVAD.fmk-induced cell death (necroptosis), CellTiter 96 AQueous (MTS) readout; type: cell-based; conditions: Homo sapiens, U-937
Text: Upon TNF-Receptor I ligation, Ser/Thr kinase RIPK1 is recruited to a transient receptor complex 1. Upon modification of RIPK1 which promotes activation of RIPK1, complex IIb can form, that involves recruitment of RIPK3 and MLKL (mixed lineage-kinase domain-like protein) which then translocates from the cytosol to the plasma membrane to execute cell death (Cai, Z. et al, Nat. Cell Biol. (2014) 16:55-65).
Cell death was quantified in 96 well plates by determination of the amount of live cell using a CellTiter 96 AQueous reagent (Promega), a calorimetric method to measure the number of live cells by reducing tetrazolium compound [3-(4,5-dimethylthiazol-2-yl)-5-(3-carboxymethoxyphenyl)-2-(4-sulfophenyl)-2H-tetrazolium, inner salt; MTS] into formazan. Absorbance of formazan was read at 490 nm. The inhibitory activity of the test compound was quantified in a concentration response curve (CRC) experiment.
Compounds were obtained as 10 mM stock solutions and were diluted 1 to 10 volumes with DMSO to yield a 1 mM solution. From this solution 2 μl were diluted with 998 μl growth medium. 100 μl of 2 μM compound solution was further diluted sequentially with a dilution factor of 2.5 by adding 150 μl growth medium. A total of 10 concentrations were tested ranging from 10 μM to 0.26 nM or from 1 μM to 0.07 nM.
U937 cells were cultured in RPMI1640 Glutamax and 10% heat inactivated FBS. 50 μl cell suspension containing 1×10^6 cells/ml supplemented with 50 μM zVAD.fmk (Benzyloxycarbonyl-Val-Ala-Asp (OMe) fluoromethylketone) and 100 ng/ml recombinant human TNF[…] were dispensed in each well of a 96-well plate. 50 μl of compound dilutions (described in Cellular assay in U937 cells) were added and the cell suspension incubated overnight (18 to 24 hrs) at 37° C., 5% CO2 in a humidified atmosphere (95% rH). High (no compound) and low control (no TNF[…], zVAD.fmk) were tested with 7 replicates; all compound concentrations were tested in duplicates on each experimental plate.
CellTiter 96 Aqueous reagent was mixed (100 μl PMS (phenazine methosulfate) solution/2 ml MTS (3-(4,5-[…])-5-(3-carboxymethoxyphenyl)-2-(4-sulfophenyl)-2H-tetrazolium, inner salt) solution) and 20 μl were added per well. After 4 hrs incubation at 37° C. (5% CO2 95% rH) optical density was measured at 490 nm on a microplate reader (Tecan Infinite M1000).
The % inhibition is expressed as percentage of the maximal inhibition value obtained in the absence of TNFα/zVAD.fmc.

SMILES | pIC50 [1] | pIC50 (U937 cells)
Cn1ncc2ccc(C[C@H]3CC[C@H](C(=O)N4OCC[C@H]4c4cc(F)cc(F)c4)CC3)cc21 [compound 295, trans-[(3S)-3-(3,5-difluorophenyl)isoxazolidin-2-yl]-[4-[(1-methylindazol-6-yl)methyl]cyclohexyl]methanone] | 8.22 | 9.00
Cc1cn(C[C@H]2CC[C@H](C(=O)N3OCC[C@H]3c3cc(F)cc(F)c3)CC2)c2cc(C(N)=O)ccc12 [compound 111, trans-1-((4-((S)-3-(3,5-difluorophenyl)isoxazolidine-2-carbonyl)cyclohexyl)methyl)-3-methyl-1H-indole-6-carboxamide] | 7.57 | 8.00
Cc1cncc([C@@H]2CCON2C(=O)[C@H]2CC[C@H](Cc3cc(C)c4ncnn4c3)CC2)c1 [compound 334, trans-[(3S)-3-(5-methylpyridin-3-yl)-1,2-oxazolidin-2-yl]-[4-[(8-methyl-[1,2,4]triazolo[1,5-a]pyridin-6-yl)methyl]cyclohexyl]methanone] | 7.70 | 7.46
Cc1nc2c(C)cc(C[C@H]3CC[C@H](C(=O)N4OCC[C@H]4c4cnc(C)c(F)c4)CC3)cn2n1 [compound 330, trans-[4-[(2,8-dimethyl-[1,2,4]triazolo[1,5-a]pyridin-6-yl)methyl]cyclohexyl]-[(3S)-3-(5-fluoro-6-methylpyridin-3-yl)-1,2-oxazolidin-2-yl]methanone] | 7.70 | 7.74
O=C([C@H]1CC[C@H](Cn2cnc3ccccc32)CC1)N1OCC[C@H]1c1cc(F)cc(F)c1 [compound 8, trans-(4-((1H-benzo[d]imidazol-1-yl)methyl)cyclohexyl)((S)-3-(3,5-difluorophenyl)isoxazolidin-2-yl)methanone] | 7.72 | 8.22
N#Cc1cc(F)cc([C@@H]2CCON2C(=O)[C@H]2CC[C@H](Cn3ccc4c(F)cc(C#N)cc43)CC2)c1 [compound 46, trans-1-((4-((S)-3-(3-cyano-5-fluorophenyl)isoxazolidine-2-carbonyl)cyclohexyl)methyl)-4-fluoro-1H-indole-6-carbonitrile] | 7.89 | 8.22
Cc1c(F)cc([C@@H]2CCON2C(=O)[C@H]2CC[C@H](Cc3cncc(C#N)c3C)CC2)cc1C#N [compound 287, trans-5-[[4-[(3S)-3-(3-cyano-5-fluoro-4-methyl-phenyl)isoxazolidine-2-carbonyl]cyclohexyl]methyl]-4-methyl-pyridine-3-carbonitrile] | 8.70 | 9.00
COc1cncc([C@@H]2CCON2C(=O)[C@H]2CC[C@H](Cn3ncc4cc(C#N)ccc43)CC2)n1 [compound 217, trans-1-[[4-[(3S)-3-(6-methoxypyrazin-2-yl)isoxazolidine-2-carbonyl]cyclohexyl]methyl]indazole-5-carbonitrile] | 7.39 | 7.92
Cc1nn(C[C@H]2CC[C@H](C(=O)N3OCC[C@H]3c3cc(F)cc(F)c3)CC2)c2cc(C#N)cc(F)c12 [compound 101, trans-1-((4-((S)-3-(3,5-difluorophenyl)isoxazolidine-2-carbonyl)cyclohexyl)methyl)-4-fluoro-3-methyl-1H-indazole-6-carbonitrile] | 7.74 | 8.40
N#Cc1cc2c(ccn2C[C@H]2CC[C@H](C(=O)N3OCC[C@H]3c3cc(F)cc(F)c3)CC2)cc1F [compound 23, trans-1-((4-((S)-3-(3,5-difluorophenyl)isoxazolidine-2-carbonyl)cyclohexyl)methyl)-5-fluoro-1H-indole-6-carbonitrile] | 7.68 | 8.52
Cc1ccc([C@@H]2CCON2C(=O)[C@H]2CC[C@H](Cc3cc(C)ncc3Cl)CC2)cn1 [compound 389, trans-[4-[(5-chloro-2-methylpyridin-4-yl)methyl]cyclohexyl]-[(3S)-3-(6-methylpyridin-3-yl)-1,2-oxazolidin-2-yl]methanone] | 7.70 | 7.89
O=C([C@H]1CC[C@H](Cc2ccc(C3(O)COC3)cc2)CC1)N1OCC[C@H]1c1ccc(F)cc1 [compound 170, trans-[(3S)-3-(4-fluorophenyl)isoxazolidin-2-yl]-[4-[[4-(3-hydroxyoxetan-3-yl)phenyl]methyl]cyclohexyl]methanone] | 7.68 | 7.82
Cc1ncc(C[C@H]2CC[C@H](C(=O)N3OCC[C@H]3c3cc(F)cc(C#N)c3)CC2)cc1C#N [compound 268, trans-5-[[4-[(3S)-3-(3-cyano-5-fluoro-phenyl)isoxazolidine-2-carbonyl]cyclohexyl]methyl]-2-methyl-pyridine-3-carbonitrile] | 7.92 | 8.30
N#Cc1cc(F)cc([C@@H]2CCON2C(=O)[C@H]2CC[C@H](Cn3cnc4cc(F)c(C(N)=O)cc43)CC2)c1 [compound 70, trans-1-((4-((S)-3-(3-cyano-5-fluorophenyl)isoxazolidine-2-carbonyl)cyclohexyl)methyl)-5-fluoro-1H-benzo[d]imidazole-6-carboxamide] | 7.36 | 6.39
Cn1ncc2ncc(C[C@H]3CC[C@H](C(=O)N4OCC[C@H]4c4cc(F)cc(F)c4)CC3)cc21 [compound 297, trans-[(3S)-3-(3,5-difluorophenyl)isoxazolidin-2-yl]-[4-[(1-methylpyrazolo[4,3-b]pyridin-6-yl)methyl]cyclohexyl]methanone] | 7.85 | 8.15
Cc1ccc(C[C@H]2CC[C@H](C(=O)N3OCC[C@H]3c3cnc(C)c(F)c3)CC2)nn1 [compound 388, trans-[(3S)-3-(5-fluoro-6-methylpyridin-3-yl)-1,2-oxazolidin-2-yl]-[4-[(6-methylpyridazin-3-yl)methyl]cyclohexyl]methanone] | 7.01 | 6.75
Cc1nc2ccc(C[C@H]3CC[C@H](C(=O)N4OCC[C@H]4c4cnccn4)CC3)cn2n1 [compound 222, trans-[4-[(2-methyl-[1,2,4]triazolo[1,5-a]pyridin-6-yl)methyl]cyclohexyl]-[(3S)-3-pyrazin-2-ylisoxazolidin-2-yl]methanone] | 7.43 | 7.32
Cc1cncc([C@@H]2CCON2C(=O)[C@H]2CC[C@H](Cc3cc(F)c4nc(C)nn4c3)CC2)c1 [compound 333, trans-[4-[(8-fluoro-2-methyl-[1,2,4]triazolo[1,5-a]333yrdine-6-yl)methyl]cyclohexyl]-[(3S)-3-(5-methylpyridin-3-yl)-1,2-oxazolidin-2-yl]methanone] | 7.52 | 7.26
Cc1cncc([C@@H]2CCON2C(=O)[C@H]2CC[C@H](Cc3cc(C)c4nc(C)nn4c3)CC2)c1 [compound 378, trans-[4-[(2,8-dimethyl-[1,2,4]triazolo[1,5-a]pyridin-6-yl)methyl]cyclohexyl]-[(3S)-3-(5-methylpyridin-3-yl)-1,2-oxazolidin-2-yl]methanone] | 7.23 | 7.02
Cc1ccc([C@@H]2CCON2C(=O)[C@H]2CC[C@H](Cc3ccc4c(c3)C(=O)NC4)CC2)cn1 [compound 157, trans-6-[[4-[(3S)-3-(6-methyl-3-pyridyl)isoxazolidine-2-carbonyl]cyclohexyl]methyl]isoindolin-1-one] | 7.48 | 6.40
